Laboratory results: patent US20090005253A1, “Double Hybrid System Based on Gene Silencing by Transcriptional Interference” (AVENTIS PHARMA S.A., priority 2004, published 2009)

Tested on: Fe65/App interaction
Assay: growth restoration test on solid medium, yRB49 (rY2H UI interference system) expressing the Fe65/App interaction
Assay type: cell-based
Conditions: medium free of histidine, 1 mM 3-AT; 1 μl at 0.125%, 0.25%, 0.5% or 1% at center of dish; 30° C., 48 hours
Procedure: The strain containing the UI transcriptional interference system (yRB49) and cotransformed with the plasmids pRB34 and pRB35 (Fe65/App interaction) was plated out onto medium without histidine and containing 1 mM of 3-AT. […] The dishes were incubated at 30° C. for 48 hours.
The strain containing the UI transcriptional interference system (yRB49) was cotransformed with the pairs of plasmids pRB34 and pRB35 (Fe65/App interaction) or pDBT-mdm2 and pVP16-p53Nt (mdm2/p53 interaction). The strain containing the plasmids pRB34 and pRB35 (Fe65/App interaction) was plated out onto 5 dishes of medium without histidine supplemented with 1 mM of 3-AT (top row); the strain containing the plasmids pDBT-mdm2 and pVP16-p53Nt (mdm2/p53 interaction) was similarly plated out onto 5 dishes of medium without histidine supplemented with 20 mM of 3-AT (bottom row).
A control dish was prepared for each interaction by depositing 1 μl of histidine at 0.125% w/v at the center of this dish. A different molecule, A, B, C or D, was deposited onto each of the other 4 dishes, according to the following scheme: in the upper left corner, 1 μl of the product at a concentration of 0.1 mM is deposited; in the upper right corner, 1 μl of the same product at a concentration of 1 mM is deposited; at the center, 1 μl of this product at 10 mM is deposited. […]

## N[C@@H](Cc1c[nH]cn1)C(=O)O [histidine]
  restoration of growth around the deposit by nutrient (FIG. 8C): capable of restoring the growth
